Measured values from publication PMC10218905, “Improving the Enzymatic Activity and Stability of a Lytic Polysaccharide Monooxygenase” (International Journal of Molecular Sciences, 2023).

Experiments:
Test in all cases: spectrophotometric oxidation assay at […] nm
Format in all cases: biochemical
Details in all cases: 100 µM H2O2 co-substrate, copper-loaded enzyme, 100 mM sodium acetate pH 6.0, 30 °C; read-out: Km app
BaLPMO10A [1] = target: T1, BaLPMO10A (Bacillus velezensis, UniProt A7Z541, I31V/E151D, form not given)
T1 construct: gene RBAM_017540; mature enzyme with native N-terminus; N-terminal SUMO tag cleaved, C-terminal 6xHis tag; pET-20b, E. coli BL21(DE3); copper-saturated

BaLPMO10A [2] = target: T2, BaLPMO10A (Bacillus velezensis, UniProt A7Z541, V67L, form not given)
T2 construct: gene RBAM_017540; mature enzyme with native N-terminus; N-terminal SUMO tag cleaved, C-terminal 6xHis tag; pET-20b, E. coli BL21(DE3); copper-saturated

BaLPMO10A [3] = target: T3, BaLPMO10A (Bacillus velezensis, UniProt A7Z541)
T3 construct: gene RBAM_017540; mature enzyme with native N-terminus; N-terminal SUMO tag cleaved, C-terminal 6xHis tag; pET-20b, E. coli BL21(DE3); copper-saturated

BaLPMO10A [4] = target: T4, BaLPMO10A (Bacillus velezensis, UniProt A7Z541, V67L/E151D, form not given)
T4 construct: gene RBAM_017540; mature enzyme with native N-terminus; N-terminal SUMO tag cleaved, C-terminal 6xHis tag; pET-20b, E. coli BL21(DE3); copper-saturated
T4 sequence (A7Z541 entry or part of it V67L/E151D, form open): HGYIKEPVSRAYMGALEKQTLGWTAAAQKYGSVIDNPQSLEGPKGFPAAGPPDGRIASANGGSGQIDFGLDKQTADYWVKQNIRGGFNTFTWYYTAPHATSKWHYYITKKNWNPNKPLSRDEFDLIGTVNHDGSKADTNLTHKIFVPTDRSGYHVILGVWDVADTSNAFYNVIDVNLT

T1 sequence (A7Z541 entry or part of it I31V/E151D, form open): as the sequence (A7Z541 entry or part of it V67L/E151D, form open) above, with I4V, L40V counted along it
T2 sequence (A7Z541 entry or part of it V67L, form open): as the sequence (A7Z541 entry or part of it V67L/E151D, form open) above, with D124E counted along it
T3 sequence (A7Z541 entry or part of it): as the sequence (A7Z541 entry or part of it V67L/E151D, form open) above, with L40V, D124E counted along it

- Km (BaLPMO10A [1]): 95.5 ± 9.5 mM
- Km (BaLPMO10A [2]): 32.5 ± 3.6 mM
- Km (BaLPMO10A [3]): 41.3 ± 7.33 mM
- Km (BaLPMO10A [4]): 33.5 ± 1.6 mM
SMILES: COc1cccc(OC)c1O [2,6-DMP, 2,6-Dimethoxyphenol]
